These results are taken from patent US8198419B2, “Glycorandomization and production of novel erythromycin analogs” (Wisconsin Alumni Research Foundation, priority 2001, dated 2012).

Assay [1] addresses T1, GtfE (Amycolatopsis orientalis, UniProt Q9AFC6).
T1 construct: made in house; host or cells: Escherichia coli
T1 sequence (Q9AFC6 1-409): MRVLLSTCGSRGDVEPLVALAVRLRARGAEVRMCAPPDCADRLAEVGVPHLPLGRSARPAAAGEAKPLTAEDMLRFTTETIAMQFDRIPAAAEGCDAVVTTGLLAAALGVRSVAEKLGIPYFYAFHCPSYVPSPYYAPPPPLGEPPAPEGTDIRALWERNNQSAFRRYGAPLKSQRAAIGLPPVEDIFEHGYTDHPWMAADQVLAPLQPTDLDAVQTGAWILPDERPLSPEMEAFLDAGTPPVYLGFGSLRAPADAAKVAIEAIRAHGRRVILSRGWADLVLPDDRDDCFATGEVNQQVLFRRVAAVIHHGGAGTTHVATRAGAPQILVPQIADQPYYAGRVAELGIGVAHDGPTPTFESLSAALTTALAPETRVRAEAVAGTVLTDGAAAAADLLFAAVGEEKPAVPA
The experiment in a line: GtfE steady-state kinetics and transfer of NDP-glucose derivatives to heptapeptide aglycone. The conditions noted are these: for Km: NDP-sugar donor varied, acceptor vancomycin aglycone held at 1 mM; for Km / kcat: pH 9; for kcat: acceptor vancomycin aglycone 1 mM; for catalytic efficiency relative to native substrate: vancomycin aglycone as acceptor; for recognition / transfer of the sugar by GtfE: vancomycin and teicoplanin aglycone acceptors, HPLC and mass spectrometry. The class given is biochemical. As to the method: (The acceptor substrate, the vancomycin aglycone, was held constant at 1 mM in each experiment.)
Biochemistry 2001; 40(15):4745-55; and Solenberg et al. Production of hybrid glycopeptide antibiotics in vitro and in Streptomyces toyocaensis. Chem Biol 1997; 4(3):195-202. Reactions were carried out and analyzed by HPLC as previously described. […] Each 100 μL reaction contained either 1 mM vancomycin aglycone or 0.5 mM teicoplanin aglycone. […] Reactions with GtfD also contained 2 mM UDP-L-4-epi-vancosamine. 50 μL time points were taken at 0 and 20 h, and quenched with 9 vol methanol. After centrifugation, the supernatants were dried and resuspended in water for HPLC analysis. All glycosylation reactions were monitored by UV (285 nm) using a Vydac C18 small pore column with a linear gradient of 0-20 percent acetonitrile in water with 0.1 percent trifluoracetic acid. The molecular weight of new products was analyzed by Maldi-TOF mass spectrometry using a Perseptive Biosystems Voyager-DE STR mass spectrometer.
All reactions were carried out with 1 mM vancomycin aglycone as the acceptor substrate. […] Each experiment was performed in duplicate or triplicate.

Assay [2] addresses thymidylyltransferase (rmlA-encoded Ep) (Salmonella typhimurium, UniProt P26393). The conditions noted are these: Lindquist et al. 1993, cited from earlier work.
The subject of assay [3] is DNA. Particulars: estimated; unit not given; cited from earlier work.
The mark [4] stands for this setting: read-out: Km, forward direction.

By Km is commonly meant the substrate concentration at which the rate is half of its maximum. The kcat is the maximal rate divided by the concentration of active sites.

Entries after “also recorded” stand apart in the source; their conditions may differ. Like-named read-outs stand apart in the source and are kept apart here.

Chain of thymidylyltransferase (rmlA-encoded Ep) (P26393 whole entry): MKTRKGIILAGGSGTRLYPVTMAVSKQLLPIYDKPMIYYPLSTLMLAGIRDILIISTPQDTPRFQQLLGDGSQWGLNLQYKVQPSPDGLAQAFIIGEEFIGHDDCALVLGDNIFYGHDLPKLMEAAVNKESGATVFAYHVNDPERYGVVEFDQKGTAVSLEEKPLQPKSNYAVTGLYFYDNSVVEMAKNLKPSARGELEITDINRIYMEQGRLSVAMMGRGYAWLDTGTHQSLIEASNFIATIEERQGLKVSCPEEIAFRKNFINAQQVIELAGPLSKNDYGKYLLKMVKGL

Consider `NC1C(OP(=O)(O)OP(=O)(O)OCC2OC(n3ccc(=O)[nH]c3=O)C(O)C2O)OC(CO)C(O)C1O` [UDP-2-NH2-glucose, Uridine 5′-(2-amino-2-deoxy-α-D-glucopyranosyl diphosphate)], for which, in assay [1], the Km stood at 790 ± 80 µM and the kcat stood at 0.045 ± 0.0033 s⁻¹. With `Cc1cn([C@H]2C[C@H](O)[C@@H](COP(=O)(O)OP(=O)(O)OP(=O)(O)O)O2)c(=O)[nH]c1=O` [dTTP], in assay [2] (setting [4]), the Km was 20 µM. For `O=C[C@H](O)[C@@H](O)[C@H](O)CO` [UDP-xylose, UDP xylose, reference compound], in assay [1], the “catalytic efficiency relative to native substrate” value is recorded as “about 10%”. With `Cc1cn(C2CC(O)C(COP(=O)(O)OP(=O)(O)OC3OC(CO)C(O)C(N)C3O)O2)c(=O)[nH]c1=O` [TDP-3-NH2-glucose, Thymidine 5′-(3-amino-3-deoxy-α-D-glucopyranosyl diphosphate)], in assay [1], the Km was found to be 720 ± 60 µM and the kcat amounted to 0.06 ± 0.0033 s⁻¹. As for `NC[C@H]1O[C@H](OP(=O)(O)OP(=O)(O)OC[C@H]2O[C@@H](n3ccc(=O)[nH]c3=O)[C@H](O)[C@@H]2O)[C@H](O)[C@@H](O)[C@@H]1O` [UDP-6-NH2-glucose, Uridine 5′-(6-amino-6-deoxy-α-D-glucopyranosyl diphosphate)], in assay [1], the Km amounted to 1200 ± 200 µM and the kcat came to 0.025 ± 0.0033 s⁻¹. In the case of `O=c1ccn([C@@H]2O[C@H](COP(=O)(O)OP(=O)(O)O[C@H]3O[C@H](CCl)[C@@H](O)[C@H](O)[C@H]3O)[C@@H](O)[C@H]2O)c(=O)[nH]1` [UDP-6-Cl-glucose, UDP-6-chloro-glucose], in assay [1], the Michaelis constant (Km) amounted to 21000 ± 6000 µM, the turnover number (kcat) was determined as 0.005 ± 0.0017 s⁻¹ and the “catalytic efficiency relative to native substrate” value is listed as “less than 0.1%”.

In the case of `O=P(O)(O)O[C@H]1O[C@H](CO)[C@@H](O)[C@H](O)[C@H]1O` [α-D-glucose-1-phosphate], the Michaelis constant (Km) in assay [2] (setting [4]) is 110 µM. As to `O=P(O)(O)OP(=O)(O)O` [diphosphate], in assay [2] (read-out: Km, reverse reaction), the Km is 150 µM.

As to `[N-]=[N+]=NCC1OC(OP(=O)(O)OP(=O)(O)OC[C@H]2O[C@@H](n3ccc(=O)[nH]c3=O)[C@H](O)[C@@H]2O)C(O)C(O)C1O` (some centres unmarked) [UDP-6-azido-glucose], the “recognition / transfer of the sugar by GtfE” value (shortened to “recognition / transfer”) in assay [1] was “inadequate for transfer”. Take `CCN[C@H]1CO[C@@H](O[C@H]2[C@H](O[C@H]3C#CC=CC#C[C@@]4(O)CC(=O)C(NC(=O)OC)=C3/C4=C\CSSSC)O[C@H](C)[C@@H](NO[C@H]3C[C@H](O)[C@H](SC(=O)c4c(C)c(I)c(O[C@@H]5O[C@@H](C)[C@H](O)[C@@H](OC)[C@H]5O)c(OC)c4OC)[C@@H](C)O3)[C@@H]2O)C[C@@H]1OC` (stereo in doubt) [calicheamicin, calicheamicin γ1^I]: the “affinity (DNA binding)” value in assay [3] is listed as 10^6-10^8.

For `Cc1cn([C@H]2C[C@H](O)[C@@H](COP(=O)(O)OP(=O)(O)O[C@H]3O[C@H](CO)[C@@H](N)[C@H](O)[C@H]3O)O2)c(=O)[nH]c1=O` [TDP-4-NH2-glucose, Thymidine 5′-(4-amino-4-deoxy-α-D-glucopyranosyl diphosphate)], in assay [1], the Km is 1100 ± 100 µM and the kcat came to 0.0217 ± 0.0017 s⁻¹.

For the compound `Cc1cn([C@H]2C[C@H](O)[C@@H](COP(=O)(O)OP(=O)(O)O[C@H]3O[C@H](CO)[C@@H](O)[C@H](O)[C@H]3O)O2)c(=O)[nH]c1=O` [TDP-glucose, Thymidine 5′-(α-D-glucopyranosyl diphosphate), reference compound], in assay [1], the Michaelis-Menten constant (Km) was determined as 620 ± 90 µM and the catalytic constant (kcat) stood at 0.483 ± 0.033 s⁻¹. In addition, the Km in assay [2] (read-out: Km, reverse reaction) is 83 µM.

`[N-]=[N+]=NC1C(OP(=O)(O)OP(=O)(O)OCC2OC(n3ccc(=O)[nH]c3=O)C(O)C2O)OC(CO)C(O)C1O` (centres unmarked) [UDP-2-azido-glucose]: the “recognition / transfer” value in assay [1] is “inadequate for transfer”. The same measure, in the same setting: in the case of TDP-2-fluoro-glucose it was “not detectably processed”. As to `O=c1ccn(C2OC(COP(=O)(O)OP(=O)(O)OC3OC(CO)C(O)C(O)C3F)C(O)C2O)c(=O)[nH]1` (centres unmarked) [UDP-2-fluoro-glucose], the “recognition / transfer” value in assay [1] was “inadequate for transfer; also recorded: not recognized”.
